Assay results as given in patent US11466020B2, “Compounds and compositions for inhibition and elimination of Zika infection and uses for same” (Cornell University, priority 2017, dated 2022).
Counter-ions that a name gives are not always drawn.

System: ZIKV (MR766 strain)
Assay: Therapeutic treatment of ZIKV (MR766 strain) infected SCID-beige mice
Format: in vivo
Settings: HH 100 mg/kg/day subcutaneously for 5 days from day 5 post-infection
Procedure: (A) Scheme of prophylactic treatment of HH in vivo. HH was administrated to SCID-Beige mice 12 h before infection with MR766 virus strain. HH was injected at a dose of 100 mg/kg/day subcutaneously and euthanized at day 7. (B) qRT-PCR analysis of total ZIKV vRNA in liver, spleen, kidney and brain of ZIKV infected mice. n=12 for liver, spleen and kidney and 20 for brain. (C) qRT-PCR analysis of total ZIKV vRNA in brains of ZIKV-infected mice treated with vehicle (n=14) or HH (n=8). […] (D-F) Immunohistochemical analysis of adult cortex. […] HH prevents infection in all cortical cells. Scale bar=100 μm in (D) and 10 μm in (E, F). (G-I) Immunohistochemical analysis of adult hippocampus. […] HH inhibits infection of all cells in the hippocampus. […] The mice were then euthanized and RNA from brains was analyzed using qRT-PCR. […] The mice were euthanized after 7 days treatment and RNA from brains was analyzed using qRT-PCR. (W, X) qRT-PCR analysis of total vRNA (W) and (−) strand RNA (X) in the brains of mice treated with vehicle (n=8) or HH (n=11) at day 7 post-infection. p values were calculated by one-way repeated measures ANOVA or two-way repeated measures ANOVA with a Bonferroni test for multiple comparisons. *p<0.05, **p<0.01 and ***p<0.001.
To evaluate the therapeutic potential of HH, we first monitored the kinetics of ZIKV infection (MR766 strain) in the adult mouse brain. […]

## CN1CCC2=C[C@H](O)[C@H]3OC(=O)c4cc5c(cc4[C@H]3[C@@H]21)OCO5 [HH, hippeastrine hydrobromide]
  total and replicating (-) vRNA levels in brain: significantly decreased
